Each structure is given as a SMILES string.

The data set is described as follows: RP, Thermo Scientific Acclaim RSLC 120 C18, 100 × 2.1 mm, 2.2 µm, 30 °C, 0.2 mL/min, estimated dead time 1.1 min; A: 90% water + 10% methanol + 0.01% formic acid + 5 mM ammonium formate, pH 3.61; B: methanol + 0.01% formic acid + 5 mM ammonium formate, pH 3.61; gradient (min/%B) 0/1 1/1 2/39 13/99.9 15/99.9 15.1/1 20.1/1. Particulars: stereoisomer not certain.
Turning to `CCN(CC)CCOC(=O)C(c1ccccc1)C1CCCCC1` (centres undefined) [Drofenine], the LC retention time is 9.19 min. In the case of `COc1ccc2c3c1OC1C(=O)CCC4(O)C(C2)N(C)CCC314` (centres undefined) [Oxycodone], the LC retention time is 3.61 min.

`CC(Cc1ccccc1)NCc1ccccc1Cl` (centres undefined) [Clobenzorex]: the LC retention time was 6.82 min. As for `Cc1onc(-c2ccccc2)c1C(=O)NC1C(=O)N2C1SC(C)(C)C2C(=O)O` (centres undefined) [Oxacillin], the figure is 6.9 min; as for `CC(=O)Nc1nnc(S(N)(=O)=O)s1` [Acetazolamide], 3.43 min. As for `CC1(C)OC2CC3C4CCC5=CC(=O)C=CC5(C)C4(F)C(O)CC3(C)C2(C(=O)CO)O1` (centres undefined) [Triamcinolone acetonide], the figure is 8.69 min; as for `OC(c1ccc(Cl)cc1)(c1cncnc1)c1ccccc1Cl` (centres undefined) [Fenarimol], 10.1 min; as for `CC(C)N(C(=O)C(=O)O)c1ccc(F)cc1` [Flufenacet-OXA], 5.49 min. As for `CNC(=O)Oc1cccc2c1OC(C)(C)C2` [Carbofuran], the figure is 7.01 min; as for `O=C(NC(=O)c1c(F)cccc1F)Nc1ccc(Cl)c(Oc2ncc(C(F)(F)F)cc2Cl)c1` [Fluazuron], 12.7 min.

Consider `CCC12CCCN3CCc4c(n(c5ccccc45)C(O)(C(=O)OC)C1)C32` (centres undefined) [Vincamine], for which the LC retention time was 5.04 min. As for `CCCCCn1nc(C(=O)NC23CC4CC(CC(C4)C2)C3)c2ccccc21` [AKB48 (APINACA)], the figure is 14 min; as for `COP(=O)(OC)OC(C)=CC(=O)OC(C)c1ccccc1` (centres undefined) [Crotoxyphos], 9.39 min. As for `CCCCOCCOCCSC#N` [Lethane 384], the figure is 8.12 min. As for `CCC(=O)C1(c2cccc(O)c2)CCN(C)CC1` [Ketobemidone], the LC retention time was 4.26 min. Consider `c1ccc2[nH]c(-c3cscn3)nc2c1` [Thiabendazole], for which the LC retention time is 6.15 min. As for `COc1cc(CCN)c(OC)cc1C` [2 C-D], the figure is 5.34 min; as for `CNC(=O)Oc1cc(C)cc(C(C)C)c1` [Promecarb], 9.51 min.

Turning to `O=C1C2CC=CCC2C(=O)N1SC(Cl)(Cl)Cl` (centres undefined) [Captan], the LC retention time is 8.77 min. The same measure for `CC(C)(COCc1cccc(Oc2ccccc2)c1)c1ccc(OC(F)(F)Br)cc1` [Halfenprox]: 14.3 min. As for `O=C(Nc1ccccc1)c1ccccc1I` [Benodanil], the figure is 8.02 min; as for `CCOP(=S)(OCC)SCCSCC` [Disulfoton], 11.5 min; as for `CCCc1nc(C)c2c(=O)[nH]c(-c3cc(S(=O)(=O)N4CCCCC4)ccc3OCC)nn12` [Vardenafil-Pseudo], 10.6 min. As for `O=[N+]([O-])c1cncn1CCN1CCOCC1` [Nimorazole], the figure is 4.09 min; as for `CN(C)CCC=C1c2ccccc2CCc2ccccc21` [Amitriptyline], 8.23 min.

Regarding `CCN(CC)CCc1c[nH]c2ccccc12` [DET], the LC retention time was 4.34 min. The same measure for `CCCCOc1cc(C(=O)OCCN(CC)CC)ccc1N` [Oxybuprocaine]: 5.94 min; for `CN1CCCC1=O` [N-Methyl-2-pyrrolidone]: 3.1 min. As for `CC(C)(C)NCC(O)COc1cccc2c1SCCC2` (centres undefined) [Tertatolol], the figure is 6.76 min.

On to `O=P1(N(CCCl)CCCl)NCCCO1` (centres undefined) [Cyclophosphamide], for which the LC retention time was 6.24 min.

As for `O=C1Nc2ccc([N+](=O)[O-])cc2C(c2ccccc2F)=NC1O` (centres undefined) [Nifoxipam], the LC retention time is 6.58 min. On to `COC(=O)c1ccc(O)cc1` [Methylparaben], for which the LC retention time is 6 min. As for `CCOC(=O)C(O)(c1ccc(Cl)cc1)c1ccc(Cl)cc1` [Chlorobenzilate], the figure is 11.7 min; as for `Cc1nnc(SCC2=C(C(=O)O)N3C(=O)C(NC(=O)Cn4cnnn4)C3SC2)s1` (centres undefined) [Cefazolin], 4.16 min; as for `CN(C)CCOc1ccccc1Cc1ccccc1` [Phenyltoloxamine], 7.29 min. As for `CC12CCC(=O)C=C1CCC1C2C(=O)CC2(C)C(O)CCC12` (centres undefined) [11-Ketotestosterone], the figure is 7.9 min; as for `COCc1cnc(C2=NC(C)(C(C)C)C(=O)N2)c(C(=O)O)c1` (centres undefined) [Imazamox], 4.63 min; as for `CN(C)CCN(Cc1ccccc1)c1ccccn1` [Pyribenzamine (Tripelenamine. Azaron)], 5.86 min.

Take `COC(=O)C1C(O)CC2CCC1N2C` (centres undefined) [EME (Ecgonine methyl ester)]: the LC retention time was 1.38 min. As for `COP(=S)(OC)Oc1nc(Cl)c(Cl)cc1Cl` [Chlorpyriphos-methyl], the figure is 11.7 min; as for `CC1N=C(c2ccccc2Cl)c2cc([N+](=O)[O-])ccc2NC1=O` (centres undefined) [Meclonazepam], 8.28 min. The same measure for `CNC1C(C)OC(OC2C(C)OC(OC3C(C)=CCC4CC(CC5(C=CC(C)C(C(C)C)O5)O4)OC(=O)C4C=C(C)C(O)C5OCC(=CC=CC3C)C45O)CC2OC)CC1OC` (centres undefined) [Emamectin B1b]: 12 min. As for `CNP(=O)(OC)Oc1ccc(C(C)(C)C)cc1Cl` (centres undefined) [Crufomate], the figure is 10.5 min; as for `CC1(C)C(C(=O)OC(C#N)c2cccc(Oc3ccccc3)c2)C1(C)C` (centres undefined) [Fenpropathrin], 12.9 min. As for `O=C(Nc1ccccc1-c1ccc(Cl)cc1)c1cccnc1Cl` [Boscalid], the LC retention time was 9.4 min. The same measure for `CC(C)N=C(N)N=C(N)Nc1ccc(Cl)cc1` [Proguanil]: 6.98 min; for `CCOP(=S)(OCC)SCSC(C)(C)C` [Terbufos]: 12.2 min. As for `CCOC(=O)CCN(Cc1ccccc1)SN(C)C(=O)ON=C(C)SC` [Alanycarb], the figure is 10.8 min; as for `CN(C)c1nc(=O)n(C2CCCCC2)c(=O)n1C` [Hexazinone], 7.09 min; as for `O=C(O)c1nc(Cl)ccc1Cl` [Clopyralid], 3.06 min. The same measure for `CCC(C)C1OC2(C=CC1C)CC1CC(CC=C(C)C(OC3CC(OC)C(OC4CC(OC)C(O)C(C)O4)C(C)O3)C(C)C=CC=C3COC4C(O)C(C)=CC(C(=O)O1)C34O)O2` (centres undefined) [AvermectinB1a (Abamectin)]: 13.6 min.

Regarding `CN1CCN2c3ncccc3Cc3ccccc3C2C1` (centres undefined) [Mirtazapine], the LC retention time is 5.29 min. As for `CCN(CC)CCNC(=O)COc1ccc(OC)cc1` [Mefexamide], the figure is 4.31 min; as for `O=C(c1cccc2ccccc12)c1cn(CCN2CCOCC2)c2ccccc12` [JWH-200], 9.88 min. As for `CCSc1cc(OC)c(CCN)cc1OC` [2CT-2], the figure is 5.88 min; as for `CN(C)CCc1c[nH]c2cccc(O)c12` [Psilocin], 3.29 min.

With `CNC(=O)Nc1nc2ccccc2s1` [Benzthiazuron], the LC retention time was 7.13 min. The same measure for `C=CCN(CC=C)CCc1c[nH]c2ccc(OC)cc12` [MeO-DALT (5-)]: 4.89 min; for `CN(CCO)c1nc2c(c(=O)n(C)c(=O)n2C)n1C` [Cafaminol]: 4.94 min; for `CC1(C)SC2C(NC(=O)COc3ccccc3)C(=O)N2C1C(=O)O` (centres undefined) [Penicillin V]: 6.8 min.

With `Cc1ccc(C2(O)CCN(CCCC(=O)c3ccc(F)cc3)CC2)cc1` [Moperone], the LC retention time was 6.59 min.

Consider `CCN(CC)C(=O)c1cccc(C)c1` [DEET (Diethyltoluamide)], for which the LC retention time was 8.2 min. `Cc1nc(NS(=O)(=O)c2ccc(N)cc2)oc1C` [Sulfamoxole]: the LC retention time was 4.11 min. The same measure for `CCc1cc2c(s1)N(C)C(=O)CN=C2c1ccccc1Cl` [Clotiazepam]: 10.2 min. Regarding `CCOC(=O)CCN(SN(C)C(=O)Oc1cccc2c1OC(C)(C)C2)C(C)C` [Benfuracarb], the LC retention time was 11.9 min.

On to `CCCc1nn(C)c2c(=O)[nH]c(-c3cc(C(=O)CN4CCN(CC=Cc5ccccc5)CC4)ccc3OCC)nc12` [Cinnamyldenafil], for which the LC retention time is 9.28 min. The same measure for `CN(C)CCCN1c2ccccc2Sc2ccccc21` [Promazine]: 7.69 min. The same measure for `CCCCn1cc(C(=O)c2cccc3ccccc23)c2ccccc21` [JWH-073]: 11.9 min. `COC(=O)C(C)Oc1ccc(Cl)cc1Cl` (centres undefined) [Dichlorprop-methyl]: the LC retention time is 10.5 min.

As to `Cc1cccc(CC(C)N)c1` (centres undefined) [Amphetamine-3-methyl], the LC retention time was 5.17 min.

Take `CCc1cc(OC)c(CCN)cc1OC` [2C-E]: the LC retention time is 6.48 min. As for `CN1CCN2c3ncc(O)cc3Cc3ccccc3C2C1` (centres undefined) [Mirtazapine- 8-OH], the figure is 4.54 min; as for `CC(=O)OCCC(SC(C)=O)=C(C)N(C=O)Cc1cnc(C)nc1N` [Acetiamine], 4.46 min; as for `COc1cc(OC)nc(NC(=O)NS(=O)(=O)c2ncccc2C(=O)N(C)C)n1` [Nicosulfuron], 6.62 min.

`CN(C)C(=O)Nc1ccc(Cl)cc1` [Monuron]: the LC retention time was 6.9 min. `N#CC(CCN1CCC(C(N)=O)(N2CCCCC2)CC1)(c1ccccc1)c1ccccc1` [Piritramide]: the LC retention time was 8.19 min. The same measure for `O=c1cn[nH][nH]1` [1 2 3-triazole-5-OH (1.2.3)]: 5.99 min; for `[O-][n+]1nc(-n2ccnc2)nc2ccc(Cl)cc21` [Triazoxide]: 8.37 min. `CN(C)c1ccc(C(=C2C=CC(=[N+](C)C)C=C2)c2ccccc2)cc1` [Malachite green (MG)]: the LC retention time is 8.34 min.

Values taken from the RepoRT retention time repository (doi:10.1021/acs.analchem.2c02893).
